Results as given in paper PMC12015242, “A universal cannabinoid CB1 and CB2 receptor TR-FRET kinetic ligand-binding assay” (Frontiers in Pharmacology, 2025).
Like-named read-outs stand apart in the source and are kept apart here.

Key:
human CB2R (SNAP-CB2) [1] = target: T1, human CB2R (SNAP-CB2) (Homo sapiens, UniProt P34972); type: binding
T1 construct: truncated CB1R (CB1R91-472) and full-length CB2R (CB2R1–360); 5HT3A signal peptide (N, cleaved yes); expressed in transfected cells; membranes

human CB2R (SNAP-CB2) [2] = target: T1, human CB2R (SNAP-CB2); type: binding; details: 37°C, D77 900 nM, 15-min incubation
[3] = target: T2, human CB1R (SNAP-CB1R91–472) (Homo sapiens, UniProt P21554); assay: biochemical; type: binding
T2 construct: SNAP-tagged human CB1R or CB2R (SNAP-CB1R91–472 and SNAP-CB2); 5HT3A signal peptide (N, cleaved yes); expressed in transfected cells; membranes

full length CB1R WT = target: T3, full length CB1R WT (Homo sapiens, UniProt P21554); type: cell-based
T3 construct: 5HT3A signal peptide (N, cleaved yes); expressed in transfected cells; host or cells: T-REx-293 cells, tetracycline-induced, co-expressing the Gi-CASE biosensor

truncated CB1R91-472 = target: T4, truncated CB1R91-472 (Homo sapiens, UniProt P21554); type: cell-based
T4 construct: 5HT3A signal peptide (N, cleaved yes); expressed in transfected cells; host or cells: T-REx-293 cells, tetracycline-induced, co-expressing the Gi-CASE biosensor

[4] = target: T2, human CB1R (SNAP-CB1R91–472); assay: biochemical; type: binding; remark: listed apart in the source
[5] = target: T2, human CB1R (SNAP-CB1R91–472); assay: Fluorescent ligand kinetic association binding, TR-FRET; details: 25°C; for time required for equilibrium: 15 min data collection period
Protocol: (§1) Experiments were performed using T-REx™-293 cell membranes expressing SNAP-tagged human CB1R or CB2R (SNAP-CB1R91–472 and SNAP-CB2). All the assays were conducted at either 25°C or 37°C in white 384-well OptiPlate plates (PerkinElmer) using the PHERAstar FSX microplate reader (BMG Labtech). The TRF 337/620/520 optic module was used for all assays, except for tracer MKA-136, where the TRF 337/570/490 module was utilized. Each well was excited with four laser flashes, and signal detection was performed with a 100-μs delay, integrating the signal over 700 μs.
(§2) Assay buffer comprised HBSS (Hanks’ Balanced Salt Solution) containing 5 mM HEPES, 0.5% BSA, and 0.02% Pluronic F-127 at pH 7.4. BSA (0.5%) and 0.02% Pluronic F-127 were used to minimize the non-specific binding of hydrophobic compounds to plasticware. Membranes were preincubated with 100 μM of GppNHp at 25 or 37°C for 15 min prior to addition to the plate using automatic injectors to ensure early time points could be measured with accuracy. GppNHp is a non-hydrolyzable GTP analog that will bind to G proteins and promote the dissociation of G proteins from the receptor. This way, we promote a single population of receptors (uncoupled from G proteins) avoiding a mixed population (i.e., uncoupled receptors (R) and receptors coupled to GDP bound G proteins, or G proteins alone (RG)). Adding GTP analogs is a common strategy used in GPCR binding studies to ensure a homogeneous single-state receptor population and simplify the analysis.
(§3) To control for potential plate position effects, plate layouts were varied between independent experiments. […] D77 stock was prepared at 100x the final concentration, and 0.4 μL was added to the wells. DMSO was held constant at 2% for all assay points, including the saturation and competition binding experiments, as reflected in the text.
(§4) Fluorescent ligand binding to CB1R and CB2R was assessed via HTRF detection, allowing the construction of association binding curves. For fluorescent ligand characterization, six increasing concentrations of fluorescent ligands were prepared, and cell membranes containing human CB1R or CB2R (1 μg/well) were added (at t = 0) in a total volume of 40 μL containing 2% DMSO at 25 or 37°C, with gentle agitation. […] As the wells are read sequentially, we restricted the readout of kinetic data of two ligands per experimental run to reduce the minimum reading cycle time.
(§5) D77 association data were fitted to a global fitting model using GraphPad Prism 9.2 to simultaneously calculate k on and k off using the following equation, where k obs equals the observed rate of association and L is the concentration of D77: kobs=L⋅kon+koff (3)

human CB2R (SNAP-CB2) [6] = target: T1, human CB2R (SNAP-CB2); assay: as above; details: 25°C; for time required for equilibrium: 15 min data collection period
Protocol: as §1, §2, §3, §4, §5

CB2R = details: 25°C, radioligand kinetic binding assay, ref Martella et al., 2017; cited from earlier work

T2 sequence (P21554 91-472): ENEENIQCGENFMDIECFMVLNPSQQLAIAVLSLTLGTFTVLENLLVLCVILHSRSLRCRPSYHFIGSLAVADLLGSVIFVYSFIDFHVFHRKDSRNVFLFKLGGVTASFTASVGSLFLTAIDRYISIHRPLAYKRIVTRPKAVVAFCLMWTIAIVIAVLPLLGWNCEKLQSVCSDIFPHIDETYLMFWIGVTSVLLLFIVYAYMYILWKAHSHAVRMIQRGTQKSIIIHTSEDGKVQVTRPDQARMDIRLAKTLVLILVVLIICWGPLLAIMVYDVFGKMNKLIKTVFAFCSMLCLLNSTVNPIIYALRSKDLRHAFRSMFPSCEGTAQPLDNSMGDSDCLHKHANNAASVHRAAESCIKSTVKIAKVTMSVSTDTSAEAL
T1 sequence (P34972 whole entry, the tested form may be a part): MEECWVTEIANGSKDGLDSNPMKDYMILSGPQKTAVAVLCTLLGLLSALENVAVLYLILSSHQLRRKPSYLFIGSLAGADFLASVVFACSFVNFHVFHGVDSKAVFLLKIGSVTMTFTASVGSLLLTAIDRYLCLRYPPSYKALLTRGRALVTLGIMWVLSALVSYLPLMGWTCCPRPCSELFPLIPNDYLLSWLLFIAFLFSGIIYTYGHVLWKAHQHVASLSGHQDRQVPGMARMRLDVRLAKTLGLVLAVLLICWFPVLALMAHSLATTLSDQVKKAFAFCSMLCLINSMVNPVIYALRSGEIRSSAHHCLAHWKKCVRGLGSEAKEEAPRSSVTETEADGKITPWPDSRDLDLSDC
T3 sequence (P21554 whole entry): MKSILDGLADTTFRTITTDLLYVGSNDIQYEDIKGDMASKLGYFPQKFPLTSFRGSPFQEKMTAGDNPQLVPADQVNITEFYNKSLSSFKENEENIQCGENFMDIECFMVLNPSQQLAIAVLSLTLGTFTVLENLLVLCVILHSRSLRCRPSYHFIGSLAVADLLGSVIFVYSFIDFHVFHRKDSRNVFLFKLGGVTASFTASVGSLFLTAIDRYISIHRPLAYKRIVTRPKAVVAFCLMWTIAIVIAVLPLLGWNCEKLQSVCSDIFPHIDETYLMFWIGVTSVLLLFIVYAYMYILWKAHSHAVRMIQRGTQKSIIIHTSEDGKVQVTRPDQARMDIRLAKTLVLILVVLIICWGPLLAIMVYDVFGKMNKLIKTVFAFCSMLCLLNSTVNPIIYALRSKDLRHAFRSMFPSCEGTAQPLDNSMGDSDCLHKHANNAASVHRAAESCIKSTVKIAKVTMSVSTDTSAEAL
T4 sequence (P21554 91-472): as the sequence (P21554 91-472) above

CCCCC/C=C\C/C=C\C/C=C\C/C=C\CCCC(=O)OC(CO)CO [2-AG]
pKd (kinetic) (human CB2R (SNAP-CB2) [1]; 25°C): 6.36 ± 0.06 | pK d (kinetic) (human CB2R (SNAP-CB2) [1]; 37°C): 5.92 ± 0.04 | pK i (human CB2R (SNAP-CB2) [2]): 5.81 ± 0.03

CCCCCCC(C)(C)c1cc(O)c2c(c1)OC(C)(C)[C@@H]1CC=C(CO)C[C@@H]21 [HU-210]
pK d (kinetic) [3]: 8.65 ± 0.01 | pKd (kinetic) [3]: 8.64 ± 0.02 | Emax (%) (full length CB1R WT): 98.2 ± 6.8% | pEC50 (full length CB1R WT): 8.97 ± 0.08 | Emax (%) (truncated CB1R91-472): 104.1 ± 4.7% | pEC50 (truncated CB1R91-472): 9.15 ± 0.09 | pK i [4]: 7.99 ± 0.01

CCCCCCC(C)(C)c1cc(OC)c([C@@H]2C=C(CO)[C@@H]3C[C@H]2C3(C)C)c(OC)c1 [HU-308]
Kd ([3]; pK d (kinetic)): 4.47 µM | Kd ([3]; pKd (kinetic)): 4.27 µM | Ki [4]: 3.89 µM

CCCCCCC(C)(C)c1cc(OC)c(C2C=C(CNC(=O)CCCCCCNc3ccc([N+](=O)[O-])c4nonc34)C3CC2C3(C)C)c(OC)c1 (stereo not shown) [MKA-115]
time required for equilibrium [5]: > 15 min | time required for equilibrium (human CB2R (SNAP-CB2) [6]): > 15 min

CCCCCc1cc(O)c2c(c1)OC(C)(C)[C@@H]1CC=C(CNC(=O)CCCCCCNc3ccc([N+](=O)[O-])c4nonc34)C[C@@H]21 [MKA-136]
time required for equilibrium [5]: > 15 min | koff of fluorescent tracer (human CB2R (SNAP-CB2) [6]): 0.0035 ± 0.0012 s⁻¹ | pKd of fluorescent tracer (human CB2R (SNAP-CB2) [6]): 6.71 ± 0.41 | time required for equilibrium (human CB2R (SNAP-CB2) [6]): > 15 min

CCCCCc1cc(O)c2c(c1)OC(C)(C)[C@@H]1CC=C(CNC(=O)CCCCC[n+]3cc(S(=O)(=O)[O-])ccc3/C=C/c3cc4ccc(N(CC)CC)cc4oc3=O)C[C@@H]21 [MKA-138]
koff of fluorescent tracer [5]: 0.15 ± 0.03 s⁻¹ | pKd of fluorescent tracer [5]: 6.31 ± 0.05 | koff of fluorescent tracer (human CB2R (SNAP-CB2) [6]): 0.0153 ± 0.0015 s⁻¹ | pKd of fluorescent tracer (human CB2R (SNAP-CB2) [6]): 6.97 ± 0.08

CCOC(=O)C(CC)(CCCSCCOCCNc1ccc([N+](=O)[O-])c2nonc12)NC(=O)c1ccc(C2CC2)c(Cc2ccc(F)cc2)n1 (stereo not shown) [NBD-690]
koff of fluorescent tracer [5]: 0.128 ± 0.00733 s⁻¹ | pKd of fluorescent tracer [5]: 6.13 ± 0.09 | koff of fluorescent tracer (human CB2R (SNAP-CB2) [6]): 0.0162 ± 0.00083 s⁻¹ | pKd of fluorescent tracer (human CB2R (SNAP-CB2) [6]): 7.15 ± 0.02

CCOC(=O)C(CC)(CCCSCCOCCOCCNc1ccc([N+](=O)[O-])c2nonc12)NC(=O)c1ccc(C2CC2)c(Cc2ccc(F)cc2)n1 (stereo not shown) [NBD-691]
pKd of fluorescent tracer [5]: 6.04 ± 0.01 | koff of fluorescent tracer (human CB2R (SNAP-CB2) [6]): 0.0208 ± 0.001 s⁻¹ | pKd of fluorescent tracer (human CB2R (SNAP-CB2) [6]): 7.20 ± 0.01

CCOC(=O)C(CC)(CCCSCCOCCOCCOCCNc1ccc([N+](=O)[O-])c2nonc12)NC(=O)c1ccc(C2CC2)c(Cc2ccc(F)cc2)n1 (stereo not shown) [NBD-694]
pKd of fluorescent tracer [5]: 6.02 ± 0.01 | koff of fluorescent tracer (human CB2R (SNAP-CB2) [6]): 0.039 ± 0.00367 s⁻¹ | pKd of fluorescent tracer (human CB2R (SNAP-CB2) [6]): 6.97 ± 0.01

CCOC(=O)C(CC)(CCCSCCOCCOCCOCCOCCNc1ccc([N+](=O)[O-])c2nonc12)NC(=O)c1ccc(C2CC2)c(Cc2ccc(F)cc2)n1 (stereo not shown) [NBD-698]
koff of fluorescent tracer [5]: 0.166 ± 0.004 s⁻¹ | pKd of fluorescent tracer [5]: 6.22 ± 0.01 | koff of fluorescent tracer (human CB2R (SNAP-CB2) [6]): 0.0475 ± 0.00667 s⁻¹ | pKd of fluorescent tracer (human CB2R (SNAP-CB2) [6]): 6.93 ± 0.05

SR 144528
Residence time (Rt) (s) (human CB2R (SNAP-CB2) [1]; 25°C): 379 ± 27 s | koff (human CB2R (SNAP-CB2) [1]; 25°C): 0.00267 ± 0.00017 s⁻¹ | Residence time (Rt) (min) (human CB2R (SNAP-CB2) [1]; 25°C, listed as SR 144,528): 6.3 min | Residence time (Rt) (min) (human CB2R (SNAP-CB2) [1]; 25°C, listed as SR-144528): 6.32 ± 0.45 min | k off (human CB2R (SNAP-CB2) [1]; 37°C): 0.0115 ± 0.0005 s⁻¹ | k on (human CB2R (SNAP-CB2) [1]; 37°C): (2.47 ± 0.16) × 10^8 M^−1 min^−1 | k on (text, shared exponent) (human CB2R (SNAP-CB2) [1]; 37°C): 4.17e+06 M⁻¹ s⁻¹ | Residence time (Rt) (min) (human CB2R (SNAP-CB2) [1]; 37°C, Rt = 1/k off): 1.46 ± 0.07 min | Residence time (Rt) (s) (human CB2R (SNAP-CB2) [1]; 37°C, Rt = 1/k off): 87 ± 4 s | k off [3]: 0.0832 ± 0.0122 s⁻¹ | koff [3]: 0.0387 ± 0.00333 s⁻¹ | residence time (CB2R): 8.7 min
